Assay results: ChEMBL document CHEMBL5096241, “Discovery of 3-Aminopyrazole Derivatives as New Potent and Orally Bioavailable AXL Inhibitors” (J Med Chem, 2022)
The source made the active and inactive calls. The rule behind the calls is not given here.

Legend:
[1] = biological target: T1, Tyrosine-protein kinase receptor UFO (Homo sapiens, UniProt P30530); assay: Inhibition of recombinant AXL (unknown origin) using poly (Glu,Tyr) 4:1 as substrate incubated for 60 mins in presence of ATP by ELISA
T1 sequence (P30530 whole entry): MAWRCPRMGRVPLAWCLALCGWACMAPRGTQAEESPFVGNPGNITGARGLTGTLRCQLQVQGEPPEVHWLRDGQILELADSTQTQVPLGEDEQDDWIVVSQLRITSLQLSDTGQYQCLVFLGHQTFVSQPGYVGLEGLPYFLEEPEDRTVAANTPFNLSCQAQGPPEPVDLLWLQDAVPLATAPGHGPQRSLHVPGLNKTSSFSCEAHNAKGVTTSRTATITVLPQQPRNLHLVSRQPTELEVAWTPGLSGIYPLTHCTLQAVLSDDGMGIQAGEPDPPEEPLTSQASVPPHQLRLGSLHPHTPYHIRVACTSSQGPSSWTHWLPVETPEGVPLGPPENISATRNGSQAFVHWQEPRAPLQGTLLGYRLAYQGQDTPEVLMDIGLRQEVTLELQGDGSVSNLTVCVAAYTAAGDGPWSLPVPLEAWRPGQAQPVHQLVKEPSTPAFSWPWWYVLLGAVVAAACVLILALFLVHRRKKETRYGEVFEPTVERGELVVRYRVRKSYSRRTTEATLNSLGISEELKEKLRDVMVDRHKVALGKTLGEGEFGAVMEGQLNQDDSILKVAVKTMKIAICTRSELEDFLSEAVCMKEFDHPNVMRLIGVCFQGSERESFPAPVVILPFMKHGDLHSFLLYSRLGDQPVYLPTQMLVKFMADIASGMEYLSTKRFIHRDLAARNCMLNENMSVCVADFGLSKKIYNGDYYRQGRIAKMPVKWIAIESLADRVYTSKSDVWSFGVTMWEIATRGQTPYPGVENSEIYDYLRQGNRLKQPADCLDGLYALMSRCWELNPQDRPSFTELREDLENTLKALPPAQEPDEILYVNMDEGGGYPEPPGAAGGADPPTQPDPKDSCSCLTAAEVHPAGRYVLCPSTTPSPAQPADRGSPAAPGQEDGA

[2] = biological target: Tyrosine-protein kinase receptor UFO (Homo sapiens) (UniProt P30530); assay: Inhibition of AXL phosphorylation at Tyr702 residue in human MDA-MB-231 cells measured after 6 hrs by Western blot analysis; assay type: cell-based; settings: dose 0.8-500 nM, DDE = dose-dependent effect
[3] = Half life in Sprague-Dawley rat at 25 mg/kg, po measured for 96 hrs by LC-MS analysis; assay type: ADME, organism-based; settings: in vivo
[4] = Half life in Sprague-Dawley rat at 5 mg/kg, iv measured for 96 hrs by LC-MS analysis; assay type: ADME, organism-based; settings: in vivo
[5] = biological target: T1, Tyrosine-protein kinase receptor UFO; assay: Binding affinity to AXL (unknown origin) assessed as dissociation constant by competition binding assay
[6] = tested on: 4T1; assay: Antitumor activity against metastatic mouse 4T1 cells implanted in BALB/c mouse assessed as reduction in number of liver metastases at 50 mg/kg, po qd administered for 14 consecutive days by H & E staining based microscopic analysis (reference value: 24.7 +/- 6.7); assay type: functional; settings: time 14 day
[7] = tested on: 4T1; assay: Antitumor activity against metastatic mouse 4T1 cells implanted in BALB/c mouse assessed as tumor growth inhibition at 50 mg/kg, po qd administered for 14 consecutive days and measured every 2 days by electronic caliper method relative to control; assay type: functional; settings: 4T1, 336 h, time 14 day, read-out: TGI
[8] = tested on: 4T1; assay: In vivo inhibition of AXL phosphorylation in BALB/c mouse implanted with mouse 4T1 cells administered orally once a day for 14 days; assay type: functional, organism-based; settings: dose 50-100 mg/kg, route po, time 14.0 day, DDE = dose-dependent effect
[9] = Inhibition of TGF-beta induced cell invasion in human MDA-MB-231 cells at 1 uM incubated for 24 hrs by crystal violet staining based transwell assay relative to control; assay type: functional
[10] = Toxicity in BALB/c mouse implanted with mouse 4T1 cells assessed as splenomegaly at 50 to 100 mg/kg, po qd administered for 14 consecutive days; assay type: organism-based; settings: in vivo, 336 h, dose 50-100 mg/kg, time 14 day
[11] = Tmax in Sprague-Dawley rat at 25 mg/kg, po measured for 96 hrs by LC-MS analysis; assay type: ADME, organism-based; settings: in vivo
[12] = biological target: Hepatocyte growth factor receptor (Homo sapiens, UniProt P08581); assay: Binding affinity to MET (unknown origin) assessed as dissociation constant by competition binding assay
[13] = Inhibition of TGF-beta induced cell invasion in human MDA-MB-231 cells at 3 uM incubated for 24 hrs by crystal violet staining based transwell assay relative to control; assay type: functional
[14] = Toxicity in BALB/c mouse implanted with mouse 4T1 cells assessed as effect on implantation rate at 50 to 100 mg/kg, po qd administered for 14 consecutive days and measured every 2 days; assay type: organism-based; settings: in vivo, 336 h, dose 50-100 mg/kg, time 14 day
[15] = tested on: 4T1; assay: Inhibition of ERK phosphorylation in mouse 4T1 cells measured after 6 hrs by Western blot analysis; assay type: cell-based; settings: dose 0.8-500 nM, DDE = dose-dependent effect
[16] = tested on: 4T1; assay: Antitumor activity against metastatic mouse 4T1 cells implanted in BALB/c mouse assessed as tumor growth inhibition at 100 mg/kg, po qd administered for 14 consecutive days and measured every 2 days by electronic caliper method relative to control; assay type: functional; settings: 4T1, 336 h, time 14 day, read-out: TGI
[17] = Tmax in Sprague-Dawley rat at 5 mg/kg, iv measured for 96 hrs by LC-MS analysis; assay type: ADME, organism-based; settings: in vivo
[18] = tested on: BaF3; assay: Antiproliferative activity against mouse BaF3 cells transfected with TEL-AXL assessed as inhibition of cell growth incubated for 72 hrs; assay type: functional, cell-based; settings: BaF3, 72 h
[19] = biological target: Angiopoietin-1 receptor (Homo sapiens, UniProt Q02763); assay: Binding affinity to TIE2 (unknown origin) assessed as dissociation constant by competition binding assay
[20] = tested on: MDA-MB-231; assay: Inhibition of TGF-beta induced cell migration in human MDA-MB-231 cells assessed as reduction in wound closure at 1 to 3 uM incubated for 24 hrs by bright field microscopy based wound healing assay; assay type: functional; settings: dose 1-3 µM
[21] = tested on: MDA-MB-231; assay: Inhibition of TGF-beta induced epithelial mesenchymal transition process in human metastatic MDA-MB-231 cells assessed as restoration of N-cadherin expression incubated for 3 days by Western blot analysis; assay type: functional, cell-based; settings: dose 0.11-3 µM, time 3.0 day, DDE = dose-dependent effect
[22] = AUClast in Sprague-Dawley rat at 25 mg/kg, po measured for 96 hrs by LC-MS analysis; assay type: ADME, organism-based; parameters: time 96 hrs, dose 25 mg/kg, route po; settings: in vivo
[23] = Cmax in Sprague-Dawley rat at 5 mg/kg, iv measured for 96 hrs by LC-MS analysis; assay type: ADME, organism-based; parameters: time 96 hrs, dose 5 mg/kg, route iv; settings: in vivo
[24] = biological target: Receptor-type tyrosine-protein kinase FLT3 (Homo sapiens, UniProt P36888); assay: Inhibition of FLT3 (unknown origin)
[25] = biological target: Tyrosine-protein kinase receptor UFO (Mus musculus) (UniProt Q00993); assay: Inhibition of AXL phosphorylation at Tyr702 residue in mouse 4T1 cells measured after 6 hrs by Western blot analysis; assay type: cell-based; settings: dose 0.8-500 nM, DDE = dose-dependent effect
[26] = biological target: Platelet-derived growth factor receptor beta (Homo sapiens, UniProt P09619); assay: Binding affinity to PDGFRB (unknown origin) assessed as dissociation constant by competition binding assay
Sequence of Platelet-derived growth factor receptor beta (P09619 whole entry): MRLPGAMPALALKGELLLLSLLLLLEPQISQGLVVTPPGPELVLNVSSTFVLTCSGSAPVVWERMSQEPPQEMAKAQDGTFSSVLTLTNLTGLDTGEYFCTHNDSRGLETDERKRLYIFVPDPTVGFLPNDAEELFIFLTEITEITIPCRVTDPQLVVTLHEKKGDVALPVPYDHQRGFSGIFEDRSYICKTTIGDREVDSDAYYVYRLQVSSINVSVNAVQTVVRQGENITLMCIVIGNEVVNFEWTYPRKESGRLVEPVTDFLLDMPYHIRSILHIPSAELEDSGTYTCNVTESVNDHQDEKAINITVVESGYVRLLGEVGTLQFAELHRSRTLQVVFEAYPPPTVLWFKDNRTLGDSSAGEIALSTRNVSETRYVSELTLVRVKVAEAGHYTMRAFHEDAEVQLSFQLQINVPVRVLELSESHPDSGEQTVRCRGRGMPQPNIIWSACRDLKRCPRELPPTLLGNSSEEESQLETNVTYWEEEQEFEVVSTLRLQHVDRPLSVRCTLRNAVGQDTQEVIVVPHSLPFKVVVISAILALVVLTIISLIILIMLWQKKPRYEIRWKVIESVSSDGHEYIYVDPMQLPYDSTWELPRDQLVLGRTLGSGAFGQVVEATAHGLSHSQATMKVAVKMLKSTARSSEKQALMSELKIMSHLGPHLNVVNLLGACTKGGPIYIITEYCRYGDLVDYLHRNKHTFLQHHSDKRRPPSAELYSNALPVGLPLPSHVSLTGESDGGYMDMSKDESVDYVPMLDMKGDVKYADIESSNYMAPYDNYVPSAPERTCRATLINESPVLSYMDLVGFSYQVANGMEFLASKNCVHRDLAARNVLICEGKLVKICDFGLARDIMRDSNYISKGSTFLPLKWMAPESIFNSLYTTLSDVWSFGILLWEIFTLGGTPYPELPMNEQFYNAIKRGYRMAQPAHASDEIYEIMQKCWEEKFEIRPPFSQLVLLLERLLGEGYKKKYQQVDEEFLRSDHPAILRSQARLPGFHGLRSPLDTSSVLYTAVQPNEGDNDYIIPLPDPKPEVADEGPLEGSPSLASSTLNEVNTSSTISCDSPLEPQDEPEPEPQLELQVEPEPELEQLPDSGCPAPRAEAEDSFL

Sequence of Hepatocyte growth factor receptor (P08581 whole entry): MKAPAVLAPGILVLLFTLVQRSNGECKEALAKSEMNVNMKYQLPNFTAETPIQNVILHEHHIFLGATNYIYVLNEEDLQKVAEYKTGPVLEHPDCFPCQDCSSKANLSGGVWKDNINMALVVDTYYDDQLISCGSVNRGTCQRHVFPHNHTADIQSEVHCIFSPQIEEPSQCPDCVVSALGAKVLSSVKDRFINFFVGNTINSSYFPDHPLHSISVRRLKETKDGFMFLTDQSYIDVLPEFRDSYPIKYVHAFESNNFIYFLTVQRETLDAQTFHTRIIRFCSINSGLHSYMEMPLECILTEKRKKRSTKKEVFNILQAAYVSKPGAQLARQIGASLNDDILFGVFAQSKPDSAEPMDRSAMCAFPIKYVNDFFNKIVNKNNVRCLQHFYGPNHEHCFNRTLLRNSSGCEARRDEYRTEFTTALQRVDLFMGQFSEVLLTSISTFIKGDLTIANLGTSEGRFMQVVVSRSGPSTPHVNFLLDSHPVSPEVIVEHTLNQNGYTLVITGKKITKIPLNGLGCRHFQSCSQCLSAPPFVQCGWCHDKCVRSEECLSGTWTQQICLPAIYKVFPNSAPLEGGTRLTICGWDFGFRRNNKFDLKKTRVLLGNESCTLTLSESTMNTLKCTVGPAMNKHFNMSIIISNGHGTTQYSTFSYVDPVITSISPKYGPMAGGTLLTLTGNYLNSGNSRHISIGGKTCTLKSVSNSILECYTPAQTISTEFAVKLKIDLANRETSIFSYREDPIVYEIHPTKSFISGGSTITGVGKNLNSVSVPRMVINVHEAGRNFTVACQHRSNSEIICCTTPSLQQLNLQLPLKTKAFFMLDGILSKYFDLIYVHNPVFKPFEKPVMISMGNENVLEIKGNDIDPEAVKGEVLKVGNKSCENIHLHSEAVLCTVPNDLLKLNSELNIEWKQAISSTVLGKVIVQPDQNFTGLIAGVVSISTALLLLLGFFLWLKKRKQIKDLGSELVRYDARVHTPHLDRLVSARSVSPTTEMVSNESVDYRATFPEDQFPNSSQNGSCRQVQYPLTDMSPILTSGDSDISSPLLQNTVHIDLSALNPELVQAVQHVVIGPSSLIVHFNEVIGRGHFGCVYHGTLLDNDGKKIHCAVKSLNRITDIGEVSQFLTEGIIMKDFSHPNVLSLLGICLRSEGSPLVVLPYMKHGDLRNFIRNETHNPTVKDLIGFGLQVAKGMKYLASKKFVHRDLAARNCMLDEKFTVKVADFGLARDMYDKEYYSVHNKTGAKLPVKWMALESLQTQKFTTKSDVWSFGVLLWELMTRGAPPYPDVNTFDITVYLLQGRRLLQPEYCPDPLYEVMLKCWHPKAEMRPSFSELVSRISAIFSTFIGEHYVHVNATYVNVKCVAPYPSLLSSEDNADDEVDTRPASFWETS
Sequence of Angiopoietin-1 receptor (Q02763 whole entry): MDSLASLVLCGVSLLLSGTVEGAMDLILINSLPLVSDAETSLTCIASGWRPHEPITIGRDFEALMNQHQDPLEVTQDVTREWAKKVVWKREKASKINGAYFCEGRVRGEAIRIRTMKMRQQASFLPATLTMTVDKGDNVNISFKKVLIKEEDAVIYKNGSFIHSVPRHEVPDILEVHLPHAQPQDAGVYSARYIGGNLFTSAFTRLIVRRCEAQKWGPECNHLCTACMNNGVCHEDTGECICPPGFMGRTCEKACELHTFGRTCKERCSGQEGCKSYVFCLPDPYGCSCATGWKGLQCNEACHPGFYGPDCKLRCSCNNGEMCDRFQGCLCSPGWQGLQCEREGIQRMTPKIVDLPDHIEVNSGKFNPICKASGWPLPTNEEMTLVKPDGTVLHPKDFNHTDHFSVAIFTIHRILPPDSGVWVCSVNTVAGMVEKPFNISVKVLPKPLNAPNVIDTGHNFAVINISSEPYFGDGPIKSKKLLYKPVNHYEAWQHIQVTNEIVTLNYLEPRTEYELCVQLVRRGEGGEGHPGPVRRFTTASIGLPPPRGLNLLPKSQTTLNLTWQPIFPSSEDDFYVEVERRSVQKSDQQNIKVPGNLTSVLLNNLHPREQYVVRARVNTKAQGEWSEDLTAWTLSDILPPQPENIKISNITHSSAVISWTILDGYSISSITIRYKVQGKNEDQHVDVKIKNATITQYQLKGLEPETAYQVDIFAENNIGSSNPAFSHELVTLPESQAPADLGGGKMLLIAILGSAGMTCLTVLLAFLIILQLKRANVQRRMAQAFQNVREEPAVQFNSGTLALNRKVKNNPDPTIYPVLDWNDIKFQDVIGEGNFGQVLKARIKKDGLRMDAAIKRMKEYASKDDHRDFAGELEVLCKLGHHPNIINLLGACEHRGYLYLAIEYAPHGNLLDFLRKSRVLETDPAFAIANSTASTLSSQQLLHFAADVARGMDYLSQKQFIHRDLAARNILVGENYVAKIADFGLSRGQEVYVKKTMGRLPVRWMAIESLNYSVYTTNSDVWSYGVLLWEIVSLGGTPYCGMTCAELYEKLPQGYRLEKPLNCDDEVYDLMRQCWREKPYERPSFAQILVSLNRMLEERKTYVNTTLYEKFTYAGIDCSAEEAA
Sequence of Receptor-type tyrosine-protein kinase FLT3 (P36888 whole entry): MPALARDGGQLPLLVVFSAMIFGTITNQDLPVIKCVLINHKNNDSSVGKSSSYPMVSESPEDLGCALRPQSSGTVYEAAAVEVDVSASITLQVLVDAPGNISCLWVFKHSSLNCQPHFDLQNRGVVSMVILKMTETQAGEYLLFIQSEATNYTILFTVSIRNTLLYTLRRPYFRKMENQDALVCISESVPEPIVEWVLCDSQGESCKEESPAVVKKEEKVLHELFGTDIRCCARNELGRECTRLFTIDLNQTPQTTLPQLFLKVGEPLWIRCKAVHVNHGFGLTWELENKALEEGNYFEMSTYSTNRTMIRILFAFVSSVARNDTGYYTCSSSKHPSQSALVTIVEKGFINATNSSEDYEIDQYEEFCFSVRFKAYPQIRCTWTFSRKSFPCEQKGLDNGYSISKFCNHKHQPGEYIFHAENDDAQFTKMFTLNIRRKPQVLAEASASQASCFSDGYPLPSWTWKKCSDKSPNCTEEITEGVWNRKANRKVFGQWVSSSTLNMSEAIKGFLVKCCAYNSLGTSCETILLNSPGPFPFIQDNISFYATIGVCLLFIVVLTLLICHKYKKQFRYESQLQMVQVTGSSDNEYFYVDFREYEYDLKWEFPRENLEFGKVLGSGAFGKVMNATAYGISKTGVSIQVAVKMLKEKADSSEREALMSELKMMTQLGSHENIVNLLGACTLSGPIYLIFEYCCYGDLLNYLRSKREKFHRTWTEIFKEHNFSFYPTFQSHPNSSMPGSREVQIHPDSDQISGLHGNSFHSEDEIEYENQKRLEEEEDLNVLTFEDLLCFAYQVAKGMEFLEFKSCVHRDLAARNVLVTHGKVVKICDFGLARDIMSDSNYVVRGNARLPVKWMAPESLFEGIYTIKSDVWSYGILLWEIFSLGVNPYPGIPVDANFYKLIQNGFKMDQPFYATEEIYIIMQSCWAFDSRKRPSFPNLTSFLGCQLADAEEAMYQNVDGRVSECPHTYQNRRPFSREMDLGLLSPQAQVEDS

- IC50 [1]: 1.6 nM
- inhibition [2]: Dde
- half-life [3]: 4.22 h
- half-life [4]: 3.31 h
- Kd [5]: 0.26 nM
- Tmax [11]: 3 h
- Kd [12]: > 1000 nM
- Tmax [17]: 4.8 min
- IC50 [18]: 4.7 nM
- Kd [19]: 950 nM
- AUC(0-t) at 96 h [22]: 8410 ng·h/mL
- Cmax [23]: 12300 ng/mL
- IC50 [24]: 156 nM
- inhibition [25]: Dde
- Kd [26]: 2.3 nM
Compound: COc1cc2c(Oc3ccc(Nc4nn(C)cc4C(=O)NC4CCCCC4)cc3F)ccnc2cc1OCCCN1CCOCC1
- Activity [6]: 3.2
- inhibition in vivo at 50 mg/kg [7]: 78%
- inhibition [8]: Dde
- inhibition at 1 µM [9]: 56.5%
- Activity [10]: Non-Toxic
- inhibition at 3 µM [13]: 70.4%
- Activity [14]: Non-Toxic
- inhibition [15]: Dde
- inhibition in vivo at 100 mg/kg [16]: 95.9%
- inhibition [20]: Active
- inhibition [21]: Dde
